Test results as given in patent US9610359B2, “Methods and compositions related to annexin 1-binding compounds” (Burnham Institute for Medical Research, priority 2009, dated 2017).
“Also recorded” adds a separate entry of the source. Residues, ends and D or L forms follow the SMILES beside them. No end group written: not given here.

Key:
[1] = tested on: Lewis lung carcinoma (LLC) tumors; test: in vivo imaging of tumor targeting in dorsal skinfold chamber; parameters: species or system mouse; settings: for vascular staining in tumor tissue sections: 20 min after injection
Procedure: (A) Lewis lung carcinoma (LLC) tumors were allowed to vascularize for 3 days in dorsal skinfold chamber window in nude mice. Mice were injected with 100 μl of 50 μM IF7-A488 (row a) or RQ7-A488 (row b) in 5% glucose in water. IF7-A488 was also injected to tumor-bearing mice pre-injected with rabbit IgG (row c) or with rabbit anti-Anxa1 antibody (row d). Fluorescence signals were monitored under a fluorescence microscope up to 40 min post-injection. From left: bright field before injection, and fluorescence at 0, 5, 20 min after injection. Far right, the boundary of tumor and stroma at 20 min (Scale bar=500 μm). (B) Quantitative analysis of fluorescence during the course of the analysis shown in A. The line with the highest signal at 10 minutes represents IF&-A488. The line with the second highest signal at 10 minutes represents the control IgG. The line with the third highest signal at 10 minutes represents Anxa-1 antibody. The line with the lowest signal at 10 minutes represents RQ7-A488. Intensity of fluorescence was determined by Image J program. Error bars represent SD (n=3). Asterisks show statistical significance or p<0.0001, t test. (C) Fluorescence micrographs of tumor sections 20 min after injection with IF7-A488 and RQ7-A488. From left: IF7-A488, DAPI, merged, and bright field. […] Experiments were repeated 3 times, and representative results are shown. Arrows indicate fluorescence. (D) Fluorescence remained in circulation in mice with or without subcutaneous B16 tumors. IF7-A488 was injected intravenously through the tail vein, and fluorescence remaining in circulation was measured. Upper line represents “without tumor”, middle line represents “with 3 days tumor”, and bottom line represents “with 6 days tumor.” Error bars represent SD (n=3).
A Lewis lung carcinoma (LLC) tumor was produced in a donor nude mouse by subcutaneous injection, and small piece of tumor (less than 1 mm^3) was transplanted to a dorsal skinfold chamber in a recipient nude mouse (8-10 weeks female Balb/c nude) as described (Lehr et al., Am J Pathol 1993; 143:1055-62; Oh et al., Nat Biotechnol 2007; 25:327-37). Three days later, the mouse was anesthetized by peritoneal injection of 1.25% 2,2,2-Tribromoethanol ([…]). IF7-A488 or RQ7-A488 (100 μl; […] in 5% glucose solution) was injected through the tail vein. Intravital Alexa 488 signals in the tumor were detected and recorded by a Zeiss Axioplan fluorescence microscope and a digital camera system (DP70 and DP controller, Olympus). For inhibition assays, rabbit anti-Anxa1 antibody (H-65, Santa Cruz) or rabbit IgG (20 μg IgG) was injected 15 minutes prior to IF7-A488 injection. Signal intensity in the tumor from 0 min to 40 min was measured by Image J (NIH, Maryland). After 10 min, irradiation of specimens by a UV lamp was limited only to times when photos were taken to avoid fluorescence bleaching. The tumor was isolated from the dorsal skin folder chamber, fixed with 4% paraformaldehyde at room temperature for 15 min, immersed in O.C.T compound, and cryosections were made. Frozen sections were overlaid with Vectashield containing DAPI (Vector laboratories) and examined under a Zeiss Axioplan fluorescence microscope.

[2] = target: T1, Anxa1-His6 protein (Homo sapiens, UniProt P04083); test: in vitro plate assay for binding to recombinant Anxa1-His6 protein; settings: 4 μg/ml, Tris-HCl pH7.4, 1 mM CaCl2, 0.05% Tween 20
T1 construct: Full-length cDNA encoding Anxa1 was obtained from Invitrogen (Carlsbad, Calif.) and subcloned into pET29a vector; His6 (C); made in house; host or cells: bacteria (pET29a vector, Novagen)
T1 sequence (P04083 1-346): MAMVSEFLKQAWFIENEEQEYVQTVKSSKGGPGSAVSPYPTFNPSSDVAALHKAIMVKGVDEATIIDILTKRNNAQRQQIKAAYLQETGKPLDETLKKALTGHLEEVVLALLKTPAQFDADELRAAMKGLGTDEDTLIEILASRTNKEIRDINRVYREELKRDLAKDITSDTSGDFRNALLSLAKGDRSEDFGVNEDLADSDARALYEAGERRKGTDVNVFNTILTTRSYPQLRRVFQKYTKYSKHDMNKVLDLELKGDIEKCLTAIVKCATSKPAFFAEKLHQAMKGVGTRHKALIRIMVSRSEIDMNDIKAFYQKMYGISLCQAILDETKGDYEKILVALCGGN
Description: (§1) FIGS. 1A-1H show the essential role of annexin 1 (Anxa1) in tumor growth and identification of a peptide sequence with tumor vasculature targeting activity in vivo. A and B. Growth of B16 tumors subcutaneously injected into Anxa1(+/−) and Anxa1(−/−) mutant mice. C. Histology of B16 tumors produced in Anxa1(+/−) and Anxa1(−/−) mice. Each scale bar represents 2.00 mm. D. Immunohistochemistry of B16 tumors for CD31 showing endothelial cells and vasculature. Each scale bar represents 200 μm. E. In vivo phage targeting in B16 tumor-bearing mice. Numbers of transformed colonies recovered from the tumor or lung were determined. […] F. In vivo tumor and organ targeting activity of IFLLWQR (SEQ ID NO:2) displaying phage. Phage was injected into B16 tumor bearing mice pre-injected with anti-Anxa1 antibody or with control rabbit IgG. G. In vitro plate assay for binding of IF7-A488 (upper line) and control RQ7-A488C (lower line) to recombinant […] protein produced by bacteria. H. Effect of IF7 (upper line) and control RQ7 (lower line) on binding of FITC-labeled polyacrylamide-LeA oligosaccharide to Anxa1-His6 protein.
(§2) Full-length cDNA encoding Anxa1 was obtained from Invitrogen (Carlsbad, Calif.) and subcloned into pET29a vector (Novagen) to produce an […] fusion protein. […] After washing the plate, fluorescence was measured by a Molecular Devices Analyst HT plate reader. […]

[3] = body weights, blood cell counts and blood chemistry of treated nude mice; type: in vivo, mouse; settings: daily injection for 10 days, versus no drug injection
Description: FIGS. 15A, 15B and 15C show body weights (A), blood cell counts (B), and blood chemistry (C) of the nude mice treated with IF7C(RR)-SN38 and RQ7C(RR)-SN38 daily injection for 10 days.

[4] = target: T2, Anxa1-His protein (Homo sapiens, UniProt P04083); test: isothermal titration calorimetry (ITC) with Anxa1-His protein; type: binding; settings: 23° C., 20 mM Tris pH 7.9, 250 mM NaCl, 1 mM CaCl2, 10% dimethylsulfoxide; average n=4, two Anxa1-His preparations
T2 construct: Full-length cDNA encoding Anxa1 was obtained from Invitrogen (Carlsbad, Calif.) and subcloned into pET29a vector; His6 (C); made in house; host or cells: bacteria (pET29a vector, Novagen)
T2 sequence (P04083 1-346): T1 sequence (P04083 1-346)
Procedure: ITC was performed on a VP-ITC calorimeter from Microcal (Northampton, Mass.). In this analysis IF7K3C peptide or […] (SEQ ID NO:12), in which IF7 was modified by inserted with three lysine residues between IF7 and C to increase solubility in water. Eight μl aliquots of solution containing 1.0 or 1.5 mM were injected into the cell containing 100 or 150 μM Anxa1-His protein. In each experiment 37 injections were made. The experiments were performed at 23° C. in buffer containing 20 mM Tris pH 7.9, 250 mM NaCl, 1 mM CaCl2 and 10% dimethylsulfoxide. Experimental data were analyzed using Microcal Origin software provided by the ITC manufacturer (Microcal, Northampton, Mass.).

[5] = target: T1, Anxa1-His6 protein; test: inhibition of binding of FITC-labeled polyacrylamide-LeA oligosaccharide to Anxa1-His6
Description: as §1, §2

[6] = fluorescence remaining in circulation after intravenous injection; type: in vivo, mouse
Procedure: (A) Lewis lung carcinoma (LLC) tumors were allowed to vascularize for 3 days in dorsal skinfold chamber window in nude mice. Mice were injected with 100 μl of 50 μM IF7-A488 (row a) or RQ7-A488 (row b) in 5% glucose in water. IF7-A488 was also injected to tumor-bearing mice pre-injected with rabbit IgG (row c) or with rabbit anti-Anxa1 antibody (row d). Fluorescence signals were monitored under a fluorescence microscope up to 40 min post-injection. From left: bright field before injection, and fluorescence at 0, 5, 20 min after injection. Far right, the boundary of tumor and stroma at 20 min (Scale bar=500 μm). (B) Quantitative analysis of fluorescence during the course of the analysis shown in A. The line with the highest signal at 10 minutes represents IF&-A488. The line with the second highest signal at 10 minutes represents the control IgG. The line with the third highest signal at 10 minutes represents Anxa-1 antibody. The line with the lowest signal at 10 minutes represents RQ7-A488. Intensity of fluorescence was determined by Image J program. […] (C) Fluorescence micrographs of tumor sections 20 min after injection with IF7-A488 and RQ7-A488. […] Arrows indicate fluorescence. (D) Fluorescence remained in circulation in mice with or without subcutaneous B16 tumors. IF7-A488 was injected intravenously through the tail vein, and fluorescence remaining in circulation was measured. […]

[7] = 100 μl of 50 μM, tail vein, nude mice

Molecule: RQ7-A488 (RQWLLFI; also: Alexa 488 conjugate, site not given here) [reference compound]
- tumor fluorescence signals [1, 7]: either not detectable or remained at background levels
- vascular staining in tumor tissue sections [1]: not RQ7-A488; also recorded: no RQ7-A488 signal was detected
- binding to recombinant Anxa1-His6 protein in plate assay [2]: did not bind to Anxa1

Molecule: RQ7C(RR)-SN38 (RQWLLFICRR; also: SN-38 conjugate, site not given here)
- blood cell counts [3]: None of the parameters showed significant differences to the control
- blood chemistry [3]: None of the parameters showed significant differences to the control
- body weights [3]: None of the parameters showed significant differences to the control

Molecule: CC[C@H](C)[C@H](N)C(=O)N[C@@H](Cc1ccccc1)C(=O)N[C@@H](CC(C)C)C(=O)N[C@@H](CC(C)C)C(=O)N[C@@H](Cc1c[nH]c2ccccc12)C(=O)N[C@@H](CCC(N)=O)C(=O)N[C@@H](CCCNC(=N)N)C(=O)N[C@@H](CCCCN)C(=O)N[C@@H](CCCCN)C(=O)N[C@@H](CCCCN)C(=O)N[C@@H](CS)C(=O)O [IF7K3C] (H-IFLLWQRKKKC-OH; N-terminus and C-terminus assumed)
- Kd [4]: 11 ± 6 µM

Molecule: RQWLLFI (control peptide) [RQ7, reference compound]
- inhibition of fucosylated carbohydrate (LeA) binding to Anxa1 [5]: not by RQ7

Molecule: IF7-A488 (IFLLWQRC)
- fluorescence remaining in circulation, mice without tumors ([6]; control mice without tumors): remained in circulation after an initial surge
- fluorescence remaining in circulation, B16-tumor-bearing mice ([6]; subcutaneous B16 tumors): complete disappearance from the circulation
- time until fluorescence signals appeared in the tumor [1, 7]: within one minute
- time until tumor fluorescence reached a plateau [1, 7]: 9 min
- vascular staining in tumor tissue sections [1]: vascular staining by IF7-A488; also recorded: detected on endothelial cells of tumor vasculature
- tumor targeting after prior injection of irrelevant rabbit IgG ([1]; IgG 15 minutes prior): did not inhibit IF7-A488 tumor targeting
- tumor fluorescence signals after prior injection of anti-Anxa1 antibody ([1]; antibody 15 minutes prior): significantly reduced
- time tumor fluorescence remained high ([1]; or until the experiment was terminated): 40 min
- binding to recombinant Anxa1-His6 protein in plate assay [2]: binds to recombinant Anxa1-His6 protein
